Measurements: US10213416B2, “Substituted benzoxazolone derivatives as acid ceramidase inhibitors, and their use as medicaments” (FONDAZIONE ISTITUTO ITALIANO DI TECNOLOGIA, priority 2014, dated 2019)
“Also recorded” adds a separate entry of the source.

Experiments:
[1] = tested on: levels of MAGs in brain, liver, fat and heart; experiment: Levels of monoacylglycerols (MAG) in mouse tissues after systemic administration; format: in vivo; details: mice, 10 mg-kg-1 intraperitoneal, 3 hours after injection
Method: (§1) Specifically, the compound of Example 1 was tested for its ability to inhibit the hydrolytic degradation of diacylglycerols (DAG) and monoacylglycerols (MAG) in live mice. DAG and MAG hydrolysis is catalyzed by multiple serine lipases, including diacylglycerol lipase (DGL), monoacylglycerol lipase (MGL), hormone-sensitive lipase (HSL), and endothelial lipase. Thus, by monitoring the effects of compound of Example 1 on MAG-hydrolysing activity as well as DAG and MAG levels ex vivo, we gain important information as to the ability of the compound to interfere with those lipases in a physiologically relevant setting.
Specifically, FIG. 1 evidences the effect of Example 1 or vehicle (DMSO) on MGL activity in brain, liver, fat and heart. MAG-hydrolysing activity was measured 3 h after intraperitoneal injection of compound of Example 1 (10 mg-kg-1). Results are expressed as mean±s.e.m. (n=5). […] The levels of MAGs were quantified after 3 hours after intraperitoneal injection of compound of Example 1 (10 mg-kg-1). Specifically, levels of 16:0 MAG, 18:0 MAG, 18:1 MAG, 22:4 MAG, 22:6 MAG were measured in the brain (a); levels of 16:0 MAG, 18:0 MAG, 18:1 MAG, 22:4 MAG were measured in the liver (b), in fat (c) and in the heart (d). Results are expressed as mean±s.e.m. (n=5). […]

[2] = tested on: MAG-hydrolysing enzymes (monoacylglycerol lipase (MGL), hormone-sensitive lipase (HSL), endothelial lipase); experiment: MAG-hydrolysing activity ex vivo in mouse tissues after systemic administration (LC-MS based assay); details: mice, 10 mg-kg-1 intraperitoneal, measured 3 h after injection; brain, liver, fat and heart
Method: as §1
Specifically, FIG. 1 evidences the effect of Example 1 or vehicle (DMSO) on MGL activity in brain, liver, fat and heart. MAG-hydrolysing activity was measured 3 h after intraperitoneal injection of compound of Example 1 (10 mg-kg-1). Results are expressed as mean±s.e.m. (n=5). […] The levels of MAGs were quantified after 3 hours after intraperitoneal injection of compound of Example 1 (10 mg-kg-1). Specifically, levels of 16:0 MAG, 18:0 MAG, 18:1 MAG, 22:4 MAG, 22:6 MAG were measured in the brain (a); levels of 16:0 MAG, 18:0 MAG, 18:1 MAG, 22:4 MAG were measured in the liver (b), in fat (c) and in the heart (d). Results are expressed as mean±s.e.m. (n=5).
Tissue was homogenized in ice-cold Tris-HCl (50 mM, pH7.5, 10 vol) containing sucrose (0.32 M). […]

[3] = biological target: human (hAC) acid ceramidase (Homo sapiens (Human), UniProt Q13510); experiment: Fluorescent-based in vitro assay of acid ceramidase inhibition; format: biochemical; details: human acid ceramidase-enriched lysosomal lysate from HEK293 cells, fluorogenic probe 5 μM, pH 4.5
human (hAC) acid ceramidase, sequence (Q13510 143-395): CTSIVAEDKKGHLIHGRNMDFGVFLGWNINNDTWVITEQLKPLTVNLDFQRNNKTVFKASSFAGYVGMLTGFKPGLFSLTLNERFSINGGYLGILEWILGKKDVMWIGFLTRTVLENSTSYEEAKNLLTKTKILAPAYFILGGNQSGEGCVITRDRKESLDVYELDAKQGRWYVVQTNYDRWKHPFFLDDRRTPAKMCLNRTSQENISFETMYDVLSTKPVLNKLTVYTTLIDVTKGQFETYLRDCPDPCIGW
human (hAC) acid ceramidase, sequence (Q13510 22-142): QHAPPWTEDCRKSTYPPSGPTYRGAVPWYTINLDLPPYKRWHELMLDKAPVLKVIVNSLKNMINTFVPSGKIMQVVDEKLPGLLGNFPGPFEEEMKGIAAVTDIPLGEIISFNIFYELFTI
Description: To evaluate the potency of the compounds towards acid ceramidase, a fluorescence-based in vitro assay previously described in literature (Bedia C et al., ChemBioChem, 2007, 8, 642-648) was implemented and optimized. This assay is based on a “fluorogenic probe” containing a coumarin group and a sphingoid base moiety (see figure below), which is not fluorescent in itself, but upon enzymatic cleavage by acid ceramidase followed by a chemical transformation liberates the fluorescent molecule umbelliferone (7-hydroxychromen-2-one). By quantifying the generation of umbelliferone using a fluorescence plate-reader, the level of enzymatic activity can be measured, whereby IC50 values of compounds that inhibit this activity can be generated.
Lysosomal lysate, enriched with acid ceramidase, was prepared from a cell line stably expressing human acid ceramidase. In the assay, the fluorogenic probe (or substrate) serves as a ceramide-analogue, which is recognized and hydrolyzed at the amide bond by acid ceramidase from the enriched lysate to yield the fatty acid and coumarinic aminodiol.
A lysosomal human acid ceramidase protein preparation was obtained from HEK293 cells stably expressing acid ceramidase suspended in 20 mM Tris HCl (pH 7.5) with 0.32 M sucrose. The cell solution was sonicated and centrifuged at 800×g for 15 min at 4° C. Supernatants were then centrifuged at 12,000×g for 30 min at 4° C. Pellets were re-suspended in phosphate-buffered saline (PBS) pH 7.4 and subjected to two freeze-thaw cycles at −80° C. The suspension was finally centrifuged at 105,000×g for 1 h at 4° C. and protein concentration was measured in the supernatant with bicinchinonic-acid based protein assay.
The assay was performed in Optiplate 96-wells black plates, with each reaction well containing a mixture of 25 mM sodium acetate buffer pH 4.5 and a fixed amount of protein (2 μg) in a volume of 85 μL. After 30 min of pre-incubation with test compounds (diluted 20× from DMSO stock solutions at different concentrations), the fluorogenic probe was added (diluted 20× from EtOH stock solution, final concentration 5 μM). After incubation for 3 h at 37° C., the reactions were stopped with 50 μl of methanol and 100 μl of a 2.5 mg/mL NaIO4 fresh solution in 100 mM Glycine/NaOH pH 10.6. The plate was incubated at 37° C. for 2 h in the dark and fluorescence intensities were measured at excitation/emission wavelengths of 360/446 nm. Negative control samples consisted of the same incubation mixture in the absence of protein extracts. The IC50 values or percent of inhibition, at the indicated concentration, of selected compounds described in the invention are reported in Table 2.

| Compound | IC50 [3] [nM] | levels of the most representative MAGs (16:0, 18:0, 18:1, 22:4, 22:6 MAG) [1] | MAG-hydrolysing activity (MGL activity) [2] |
| --- | --- | --- | --- |
| CCCCOCCCNC(=O)n1c(=O)oc2cc(-c3ccc(F)cc3)ccc21 [Example 13, N-(3-butoxypropyl)-6-(4-fluorophenyl)-2-oxo-1,3-benzoxazole-3-carboxamide] | 132 ± 5 | – | – |
| O=C(NCCCCCCc1ccccc1)n1c(=O)oc2c(-c3ccc(F)cc3)cccc21 [Example 4, 7-(4-fluorophenyl)-2-oxo-N-(6-phenylhexyl)-1,3-benzoxazole-3-carboxamide] | 125 ± 79 | – | – |
| O=C(c1ccc(F)cc1)c1cccc2c1oc(=O)n2C(=O)NCCCCCc1ccccc1 [Example 9, 7-(4-fluorobenzoyl)-2-oxo-N-(5-phenylpentyl)-1,3-benzoxazole-3-carboxamide] | 66 ± 15 | – | – |
| O=C(NCCCCCc1ccccc1)n1c(=O)oc2c(-c3ccc(F)cc3)cc(Cl)cc21 [Example 14, 5-chloro-7-(4-fluorophenyl)-2-oxo-N-(5-phenylpentyl)-1,3-benzoxazole-3-carboxamide] | 37 | – | – |
| COc1ccc(C(=O)c2ccc3oc(=O)n(C(=O)NCCCCCCc4ccccc4)c3c2)cc1 [Example 8, 5-(4-methoxybenzoyl)-2-oxo-N-(6-phenylhexyl)-1,3-benzoxazole-3-carboxamide] | 46 ± 31 | – | – |
| COc1ccc(C(=O)c2ccc3c(c2)oc(=O)n3C(=O)NCCCCCc2ccccc2)cc1 [Example 6, 6-(4-methoxybenzoyl)-2-oxo-N-(5-phenylpentyl)-1,3-benzoxazole-3-carboxamide] | 26 ± 3 | – | – |

Continued, in another order:

| IC50 [3] [nM] | Compound | levels of the most representative MAGs (16:0, 18:0, 18:1, 22:4, 22:6 MAG) [1] | MAG-hydrolysing activity (MGL activity) [2] |
| --- | --- | --- | --- |
| 75 ± 20 | O=C(NCCCCCc1ccccc1)n1c(=O)oc2cc(-c3ccc(F)cc3)ccc21 [Example 1, 6-(4-fluorophenyl)-2-oxo-N-(5-phenylpentyl)-1,3-benzoxazole-3-carboxamide] | lack of effect; also recorded: remained unchanged | lack of effect; also recorded: did not cause inhibition; also recorded: no inhibitory activity |
| 111 ± 30 | O=C(NCCCCCCc1ccccc1)n1c(=O)oc2ccc(-c3ccc(C(F)(F)F)cc3)cc21 [Example 3, 2-oxo-N-(6-phenylhexyl)-5-[4-(trifluoromethyl)phenyl]-1,3-benzoxazole-3-carboxamide] | – | – |
| 240 ± 58 | O=C(NCCCCSc1ccccc1)n1c(=O)oc2ccc(-c3ccc(F)cc3)cc21 [Example 15, 5-(4-fluorophenyl)-2-oxo-N-(4-phenylsulfanylbutyl)-1,3-benzoxazole-3-carboxamide] | – | – |
